The source of these data is ChEMBL document CHEMBL1201862, “PubChem BioAssay data set” (2004).

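Compound exposure: 48 hours, 5 concentrations, 96-well plates. The concentration for 50% growth inhibition is given as GI50.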 Calls of active or inactive are those of the source. No stated cut-off is given here; in the data, active = GI50 up to about 1.1 µM and inactive = higher. Bounds are passed on as bounds.

Among the test systems are SF-539; MOLT-4; HOP-92; SNB-75; ACHN; Hs-578T; EKVX; CAKI-1; SNB-19; COLO 205; DU-145; LOX IMVI; HCT-15; MCF7; UACC-62; BT-549; SK-MEL-5; PC-3; NCI-H226.
What all share (experiment): DTP human tumour cell line panel, 48 h

A word on the GI50: it is the concentration giving 50% growth inhibition. For the molecule `COc1cc(/C=C2\N=C(c3ccccc3)N(c3nc4cc(C)c(C)cc4s3)C2=O)cc(OC)c1OC`, the GI50 in the assay with SF-539 is 21.7 µM (inactive); in the assay on MOLT-4 it was 3.31 µM (inactive); in the assay on HOP-92 it was 13 µM (inactive); with SNB-75, 18.5 µM (inactive); in the assay with ACHN, 27 µM (inactive); in the assay with Hs-578T it was 16.6 µM (inactive). The GI50 in the assay on EKVX is 17.5 µM (inactive); in the assay with CAKI-1, 35.1 µM (inactive); with SNB-19, 36 µM (inactive); in the assay with COLO 205, 27.5 µM (inactive); in the assay with DU-145, 45.4 µM (inactive); with LOX IMVI it was 22.4 µM (inactive). The GI50 is 30.3 µM in the assay with HCT-15; 18.5 µM (inactive) in the assay on MCF7; 33.3 µM (inactive) in the assay on UACC-62; 26.8 µM (inactive) in the assay on BT-549; 21.2 µM (inactive) with SK-MEL-5; 23.9 µM (inactive) with PC-3.
As for `CSc1c(C(=O)Nc2ccccc2)c(N)n(N)c(=O)c1C#N`, the GI50 in the assay with SF-539, with MOLT-4, in the assay with SNB-75, with Hs-578T, in the assay with EKVX and with CAKI-1 was > 100 µM (inactive) in each case. Besides, the GI50 was > 100 µM (inactive) in the assay on SNB-19; > 100 µM (inactive) in the assay on COLO 205; > 100 µM (inactive) with DU-145; > 100 µM (inactive) in the assay on NCI-H226; > 100 µM (inactive) with LOX IMVI; over 100 µM in the assay on HCT-15. In addition, the GI50 in the assay on MCF7, in the assay with UACC-62, in the assay with BT-549, with SK-MEL-5 and in the assay on PC-3 was > 100 µM (inactive) throughout.
In the case of `C#Cc1cc(Br)c(OC(=O)C(C)(C)C)c(-c2cc(C#C)cc(Br)c2OC(=O)C(C)(C)C)c1`, the GI50 with SF-539 was 64.6 µM (inactive); with MOLT-4 it was 23 µM (inactive); with HOP-92, 36.9 µM (inactive); in the assay on ACHN, 21.4 µM (inactive); in the assay on Hs-578T it was 53.6 µM (inactive); in the assay with EKVX, 31.2 µM (inactive). Also, the GI50 was 61.8 µM (inactive) in the assay on CAKI-1; 43.9 µM (inactive) in the assay on SNB-19; 31 µM (inactive) in the assay with COLO 205; 62.4 µM (inactive) in the assay with DU-145; 19.7 µM (inactive) with LOX IMVI; 32.6 µM with HCT-15. In addition, the GI50 was 26.7 µM (inactive) with MCF7; 81.5 µM (inactive) in the assay on UACC-62; > 100 µM (inactive) in the assay on BT-549; 37.6 µM (inactive) in the assay on SK-MEL-5; 50.2 µM (inactive) with PC-3.
As for `Cc1cc2c(cc1Cl)SC(NN(C)C)=NS2(=O)=O`, the GI50 in the assay with SF-539, with MOLT-4, with SNB-75, with ACHN, with Hs-578T and in the assay on EKVX was > 10 µM (inactive) in each case. The GI50 in the assay with CAKI-1, in the assay on SNB-19, with COLO 205, with DU-145, in the assay on NCI-H226 and in the assay on LOX IMVI was > 10 µM (inactive) each time. The GI50 was over 10 µM in the assay with HCT-15; > 10 µM (inactive) in the assay on MCF7; > 10 µM (inactive) in the assay on UACC-62; > 10 µM (inactive) in the assay on BT-549; > 10 µM (inactive) in the assay on SK-MEL-5; > 10 µM (inactive) with PC-3.
Regarding `COc1ccc(/C=N/NC(=O)c2cnc3[nH]c(=O)n(C)c(=O)c3c2)cc1`, the GI50 was > 100 µM (inactive) in the assay on MOLT-4; 13.1 µM (inactive) with SNB-75; 44 µM (inactive) with ACHN; 39.9 µM (inactive) with Hs-578T; > 100 µM (inactive) in the assay with EKVX; 94.8 µM (inactive) in the assay with CAKI-1. The GI50 with SNB-19 is 34.1 µM (inactive); in the assay with COLO 205 it was > 100 µM (inactive); with DU-145, > 100 µM (inactive); with NCI-H226, 64.1 µM (inactive); in the assay on HCT-15 it was over 100 µM; in the assay with MCF7, > 100 µM (inactive). Further, the GI50 is 80.2 µM (inactive) in the assay with UACC-62, > 100 µM (inactive) in the assay on BT-549, > 100 µM (inactive) with SK-MEL-5 and > 100 µM (inactive) with PC-3.
With `N#CC12C(=O)NC(=O)C1(C#N)C1C=CC2CC1` (stereo unspecified), the GI50 in the assay on SF-539, with MOLT-4, in the assay with SNB-75, in the assay on ACHN, with Hs-578T and in the assay with EKVX was > 100 µM (inactive) in each case. Besides, the GI50 in the assay on CAKI-1, in the assay on SNB-19, in the assay with COLO 205, in the assay with DU-145, in the assay with NCI-H226 and in the assay with LOX IMVI was > 100 µM (inactive) in each case. The GI50 in the assay on HCT-15 was over 100 µM; in the assay on MCF7, > 100 µM (inactive); in the assay with UACC-62, > 100 µM (inactive); in the assay with BT-549, > 100 µM (inactive); in the assay with SK-MEL-5, > 100 µM (inactive); with PC-3 it was > 100 µM (inactive).
With `Cc1cc(C(=O)CCCCOc2ccc(C3=NCCO3)cc2)c(C)n1C`, the GI50 in the assay on MOLT-4 was 14.7 µM (inactive); in the assay on SNB-75, 21 µM (inactive); in the assay with ACHN, 35.4 µM (inactive); with Hs-578T, 98.2 µM (inactive); with EKVX, 35.8 µM (inactive); in the assay on CAKI-1, 37.2 µM (inactive). Also, the GI50 in the assay on SNB-19 is 25.1 µM (inactive); in the assay with COLO 205, 52.4 µM (inactive); in the assay on DU-145, 24.3 µM (inactive); in the assay on NCI-H226, 29.3 µM (inactive); with HCT-15 it was 38.6 µM; in the assay on MCF7, 33.3 µM (inactive). The GI50 in the assay with UACC-62 is > 10 µM (inactive); with BT-549, 33.3 µM (inactive); with SK-MEL-5, 15.7 µM (inactive); in the assay on PC-3 it was 19.9 µM (inactive).
As to `Cn1c(=O)[nH]c2sc3c(c2c1=N)CCCC3`, the GI50 in the assay on MOLT-4 was > 75 µM (inactive); with SNB-75, > 75 µM (inactive); with ACHN, > 75 µM (inactive); in the assay on Hs-578T it was > 75 µM (inactive); with EKVX, 54.7 µM (inactive); with CAKI-1, > 75 µM (inactive). In addition, the GI50 in the assay with SNB-19 was > 75 µM (inactive); in the assay on COLO 205 it was > 75 µM (inactive); with DU-145, > 75 µM (inactive); with NCI-H226, > 75 µM (inactive); in the assay on LOX IMVI it was > 75 µM (inactive); in the assay with HCT-15 it was over 75 µM. Further, the GI50 in the assay on MCF7, in the assay with UACC-62, in the assay on BT-549, with SK-MEL-5 and with PC-3 was > 75 µM (inactive) throughout.
For the molecule `O=C1[C@H](c2ccccc2)C2c3ccccc3CCN12` (stereo partly specified), the GI50 in the assay with SF-539 was > 10 µM (inactive); with MOLT-4, > 10 µM (inactive); in the assay with SNB-75, > 100 µM (inactive); in the assay on ACHN, > 10 µM (inactive); with Hs-578T, > 10 µM (inactive); in the assay with EKVX, > 10 µM (inactive). Besides, the GI50 in the assay on CAKI-1, in the assay with SNB-19, with COLO 205, with DU-145, in the assay with NCI-H226 and in the assay on LOX IMVI was > 10 µM (inactive) in each case. In addition, the GI50 with HCT-15 is over 10 µM; in the assay on MCF7 it was > 10 µM (inactive); in the assay on UACC-62 it was > 10 µM (inactive); in the assay on BT-549, > 10 µM (inactive); in the assay on SK-MEL-5 it was > 10 µM (inactive); in the assay on PC-3 it was > 10 µM (inactive).
For `CC1=C([S+]([O-])c2ccc(C)cc2)CCC2(CCCCO2)O1` (stereo unspecified), the GI50 in the assay with MOLT-4, in the assay with SNB-75, in the assay with ACHN, in the assay with Hs-578T, in the assay on EKVX and in the assay with CAKI-1 was > 100 µM (inactive) in each case. The GI50 in the assay on SNB-19 was > 100 µM (inactive); with COLO 205, > 100 µM (inactive); in the assay with DU-145 it was > 100 µM (inactive); in the assay on NCI-H226, > 100 µM (inactive); with LOX IMVI, > 100 µM (inactive); with HCT-15 it was over 100 µM. For the same molecule, the GI50 is > 100 µM (inactive) in the assay on MCF7; > 100 µM (inactive) with UACC-62; > 100 µM (inactive) in the assay on BT-549; 33.3 µM (inactive) with SK-MEL-5; > 100 µM (inactive) in the assay with PC-3.
As for `COC(=O)Cc1ccc2c(cnn2-c2ccccc2)c1OC`, the GI50 with SF-539 is > 10 µM (inactive); with MOLT-4 it was > 10 µM (inactive); in the assay on SNB-75 it was > 10 µM (inactive); with ACHN, > 10 µM (inactive); with Hs-578T, > 10 µM (inactive); with EKVX it was 9.75 µM (inactive). The GI50 with CAKI-1, with SNB-19, in the assay on COLO 205, in the assay with DU-145, with NCI-H226 and with LOX IMVI was > 10 µM (inactive) each time. Besides, the GI50 with HCT-15 is over 10 µM; in the assay with MCF7 it was > 10 µM (inactive); with UACC-62 it was > 10 µM (inactive); in the assay with BT-549 it was > 10 µM (inactive); in the assay with SK-MEL-5, > 10 µM (inactive); in the assay with PC-3 it was > 10 µM (inactive).
Regarding `N#Cc1nc(Cc2ccccc2)oc1N`, the GI50 is > 100 µM (inactive) with SF-539; > 100 µM (inactive) in the assay with MOLT-4; > 100 µM (inactive) with ACHN; 25.2 µM (inactive) in the assay with Hs-578T; > 100 µM (inactive) with EKVX; > 100 µM (inactive) with CAKI-1. Besides, the GI50 was 38.7 µM (inactive) in the assay on SNB-19; > 100 µM (inactive) in the assay with COLO 205; > 100 µM (inactive) with DU-145; > 100 µM (inactive) in the assay on NCI-H226; > 100 µM (inactive) in the assay on LOX IMVI; over 100 µM with HCT-15. Moreover, the GI50 in the assay with MCF7, in the assay with BT-549, with SK-MEL-5 and with PC-3 was > 100 µM (inactive) throughout.
